Consider 22 molecules from patent US9546173B2 (Novartis AG, priority 2012, dated 2017).

Format in all cases: biochemical
The target of experiment [1] is activated ERK2 (Homo sapiens (Human), UniProt P28482). Put plainly: Activated ERK2 kinase assay (AlphaScreen, ERKtide peptide phosphorylation). As to conditions: 35 μM ATP, 30 min preincubation, read-out: ERK2 IC50. On the technique in general: In Alpha technology, singlet oxygen from a donor bead excites a nearby acceptor bead.
Experiment [2] addresses RSK2 (Homo sapiens (Human), UniProt P51812). Description: In vitro inhibition of RSK2. As to conditions: in vitro activity on RSK2; where multiple measurements were made, each value is reported. How it is done: (§1) The following Table 3 lists compounds that were tested for inhibition of RSK; the IC50 values are in micromolar units, and refer to inhibition of RSK1 and RSK2, respectively. Where multiple measurements were made, each value is reported.

Experiment [3] concerns the target RSK1 (Homo sapiens (Human), UniProt Q15418). Description: In vitro inhibition of RSK1. The following applies: in vitro activity on RSK1. How it is done: as §1
Setting [4] is: […] ERK2, 200 nM ERKtide peptide.
Setting [5] is: 0.25 nM ERK2, 200 nM ERKtide peptide.

A word on the IC50: it is the concentration needed to halve the response being measured.

Like-named read-outs stand apart in the source and are kept apart here.

RSK2, sequence (P51812 whole entry, species assumed): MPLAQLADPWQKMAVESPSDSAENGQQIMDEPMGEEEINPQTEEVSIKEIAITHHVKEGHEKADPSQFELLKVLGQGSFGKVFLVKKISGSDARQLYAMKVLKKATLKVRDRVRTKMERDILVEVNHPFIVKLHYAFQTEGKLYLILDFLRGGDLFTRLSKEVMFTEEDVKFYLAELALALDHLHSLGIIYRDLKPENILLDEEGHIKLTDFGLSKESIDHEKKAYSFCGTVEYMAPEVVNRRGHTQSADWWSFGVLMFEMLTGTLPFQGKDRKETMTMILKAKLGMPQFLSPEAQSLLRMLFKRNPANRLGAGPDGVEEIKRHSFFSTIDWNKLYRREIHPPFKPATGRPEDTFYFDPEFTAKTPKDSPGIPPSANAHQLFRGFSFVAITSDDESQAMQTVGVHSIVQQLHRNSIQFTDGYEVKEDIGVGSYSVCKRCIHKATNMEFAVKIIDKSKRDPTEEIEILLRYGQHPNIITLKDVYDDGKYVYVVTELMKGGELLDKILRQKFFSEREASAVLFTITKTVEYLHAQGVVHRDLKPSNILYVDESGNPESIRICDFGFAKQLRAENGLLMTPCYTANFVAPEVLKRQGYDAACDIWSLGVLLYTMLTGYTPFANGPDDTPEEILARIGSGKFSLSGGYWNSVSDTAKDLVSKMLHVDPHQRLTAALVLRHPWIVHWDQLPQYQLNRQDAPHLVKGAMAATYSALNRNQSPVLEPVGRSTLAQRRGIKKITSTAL
activated ERK2, sequence (P28482 whole entry): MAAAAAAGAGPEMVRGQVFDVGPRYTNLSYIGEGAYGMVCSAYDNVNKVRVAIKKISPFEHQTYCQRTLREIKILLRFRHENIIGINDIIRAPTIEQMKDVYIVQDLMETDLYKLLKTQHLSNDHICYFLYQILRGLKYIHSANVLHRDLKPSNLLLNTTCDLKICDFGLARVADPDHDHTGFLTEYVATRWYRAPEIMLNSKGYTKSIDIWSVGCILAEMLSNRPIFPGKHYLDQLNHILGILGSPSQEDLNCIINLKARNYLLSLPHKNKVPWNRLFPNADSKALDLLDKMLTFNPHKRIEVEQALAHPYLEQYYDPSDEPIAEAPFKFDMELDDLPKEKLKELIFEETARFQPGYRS
RSK1, sequence (Q15418 whole entry, species assumed): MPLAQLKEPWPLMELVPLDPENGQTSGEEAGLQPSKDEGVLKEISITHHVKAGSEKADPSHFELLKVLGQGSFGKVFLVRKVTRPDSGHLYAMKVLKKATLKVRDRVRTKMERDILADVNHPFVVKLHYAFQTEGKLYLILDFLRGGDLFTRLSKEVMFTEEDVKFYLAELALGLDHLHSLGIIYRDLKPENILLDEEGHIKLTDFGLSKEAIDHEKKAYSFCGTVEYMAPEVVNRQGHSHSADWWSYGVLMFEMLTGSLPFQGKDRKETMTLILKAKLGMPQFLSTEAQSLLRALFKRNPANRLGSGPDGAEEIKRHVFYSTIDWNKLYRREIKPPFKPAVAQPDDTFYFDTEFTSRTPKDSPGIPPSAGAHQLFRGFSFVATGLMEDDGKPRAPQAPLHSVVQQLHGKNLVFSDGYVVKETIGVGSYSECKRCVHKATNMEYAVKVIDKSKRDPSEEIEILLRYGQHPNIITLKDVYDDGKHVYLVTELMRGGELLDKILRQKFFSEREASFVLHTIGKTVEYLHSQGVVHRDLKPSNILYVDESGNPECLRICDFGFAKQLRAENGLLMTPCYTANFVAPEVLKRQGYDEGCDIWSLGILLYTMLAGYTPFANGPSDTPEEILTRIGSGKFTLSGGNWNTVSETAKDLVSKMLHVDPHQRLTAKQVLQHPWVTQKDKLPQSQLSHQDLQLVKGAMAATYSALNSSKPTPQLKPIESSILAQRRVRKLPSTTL

As for `CC1(C)c2cnc(NC3CCOCC3)nc2CN1C(=O)N[C@@H]1CCN(Cc2ccccc2F)C1` [compound 146, (R)-N-(1-(2-fluorobenzyl)pyrrolidin-3-yl)-5,5-dimethyl-2-((tetrahydro-2H-pyran-4-yl)amino)-5H-pyrrolo[3,4-d]pyrimidine-6(7H)-carboxamide], the IC50 in experiment [1] (setting [4]) stood at 0.014 µM. Take `CC1(C)c2cnc(NC3CCOCC3)nc2CN1C(=O)NC1CC(CO)CN(Cc2ccccc2F)C1` (centres unmarked) [compound 147, N-(1-(2-fluorobenzyl)-5-(hydroxymethyl)piperidin-3-yl)-5,5-dimethyl-2-((tetrahydro-2H-pyran-4-yl)amino)-5H-pyrrolo[3,4-d]pyrimidine-6(7H)-carboxamide]: the IC50 in experiment [1] (setting [4]) was 0.214 µM. Take `CN1CCN(C(=O)N2Cc3nc(Nc4ccccc4)ncc3C2(C)C)CC1(C)C` [compound 149, (5,5-dimethyl-2-(phenylamino)-5H-pyrrolo[3,4-d]pyrimidin-6(7H)-yl)(3,3,4-trimethylpiperazin-1-yl)methanone]: the IC50 in experiment [1] (setting [4]) came out at 37.7 µM; in experiment [2], 0.611 µM. For the molecule `CN1CCN(C(=O)N2Cc3nc(Nc4ccccc4)ncc3C2(C)C)CC1` [compound 151, (5,5-dimethyl-2-(phenylamino)-5H-pyrrolo[3,4-d]pyrimidin-6(7H)-yl)(4-methylpiperazin-1-yl)methanone], the IC50 in experiment [1] (setting [4]) is 5.57 µM; in experiment [3], 1.61 µM; in experiment [2], 1.17 µM. Turning to `CN1CC(NC(=O)N2Cc3nc(Nc4ccccc4)ncc3C2(C)C)C1` [compound 153, 5,5-dimethyl-N-(1-methylazetidin-3-yl)-2-(phenylamino)-5H-pyrrolo[3,4-d]pyrimidine-6(7H)-carboxamide], the IC50 in experiment [1] (setting [4]) amounted to 125 µM; in experiment [2], 1.37 µM. For `CN1CCN(C(=O)N2Cc3nc(Nc4ccccc4)ncc3C2(C)C)C(Cc2ccccc2)C1` (centres unmarked) [compound 154, (2-benzyl-4-methylpiperazin-1-yl)(5,5-dimethyl-2-(phenylamino)-5H-pyrrolo[3,4-d]pyrimidin-6(7H)-yl)methanone], in that order: 3.03 µM and 1.64 µM. As to `CC1(C)c2cnc(Nc3ccccc3)nc2CN1C(=O)NC1CCN(Cc2ccccc2)C1` (centres unmarked) [compound 155, N-(1-benzylpyrrolidin-3-yl)-5,5-dimethyl-2-(phenylamino)-5H-pyrrolo[3,4-d]pyrimidine-6(7H)-carboxamide], the IC50 in experiment [1] (setting [4]) came out at 0.969 µM; in experiment [2], 1.91 µM. `C[C@@H](NC(=O)N1Cc2nc(Nc3ccccc3)ncc2C1(C)C)c1ccccc1` [compound 156, (R)-5,5-dimethyl-2-(phenylamino)-N-(1-phenylethyl)-5H-pyrrolo[3,4-d]pyrimidine-6(7H)-carboxamide]: in experiment [2], it took 2.57 µM to reach half-maximal inhibition (IC50).

For `CN(C)CCNC(=O)N1Cc2nc(Nc3ccccc3)ncc2C1(C)C` [compound 157, N-(2-(dimethylamino)ethyl)-5,5-dimethyl-2-(phenylamino)-5H-pyrrolo[3,4-d]pyrimidine-6(7H)-carboxamide], the IC50 came out at 25 µM in experiment [1] (setting [4]) and 3.85 µM in experiment [2]. For `CN1CCC(NC(=O)N2Cc3nc(Nc4ccccc4)ncc3C2(C)C)C1` (centres unmarked) [compound 158, 5,5-dimethyl-N-(1-methylpyrrolidin-3-yl)-2-(phenylamino)-5H-pyrrolo[3,4-d]pyrimidine-6(7H)-carboxamide], in that order: 41.1 µM and 3.88 µM. Turning to `CC1(C)c2cnc(Nc3ccccc3)nc2CN1C(=O)NCC1CCN(Cc2ccccc2)C1` (centres unmarked) [compound 159, N-((1-benzylpyrrolidin-3-yl)methyl)-5,5-dimethyl-2-(phenylamino)-5H-pyrrolo[3,4-d]pyrimidine-6(7H)-carboxamide], the IC50 was found to be 19.6 µM in experiment [1] (setting [4]) and 5.65 µM in experiment [2]. Taken in the same sequence, the figures for `Cn1cncc1CNC(=O)N1Cc2nc(Nc3ccccc3)ncc2C1(C)C` [compound 160, 5,5-dimethyl-N-((1-methyl-1H-imidazol-5-yl)methyl)-2-(phenylamino)-5H-pyrrolo[3,4-d]pyrimidine-6(7H)-carboxamide] were 36.6 µM and 5.65 µM.

For `CN(C)[C@@H]1CCCC[C@H]1NC(=O)N1Cc2nc(Nc3ccccc3)ncc2C1(C)C` [compound 161, N-((1R,2R)-2-(dimethylamino)cyclohexyl)-5,5-dimethyl-2-(phenylamino)-5H-pyrrolo[3,4-d]pyrimidine-6(7H)-carboxamide], the IC50 in experiment [1] (setting [4]) was found to be 125 µM; in experiment [2], 8.2 µM. Regarding `CC1(C)c2cnc(Nc3ccccc3)nc2CN1C(=O)NCc1cocn1` [compound 162, 5,5-dimethyl-N-(oxazol-4-ylmethyl)-2-(phenylamino)-5H-pyrrolo[3,4-d]pyrimidine-6(7H)-carboxamide], the IC50 in experiment [1] (setting [4]) was 16.2 µM; in experiment [2], 8.21 µM. Taken in the same sequence, the figures for `CN1CCC(NC(=O)N2Cc3nc(Nc4ccccc4)ncc3C2(C)C)CC1` [compound 163, 5,5-dimethyl-N-(1-methylpiperidin-4-yl)-2-(phenylamino)-5H-pyrrolo[3,4-d]pyrimidine-6(7H)-carboxamide] were 83.5 µM and 14 µM. For `CC1(C)c2cnc(Nc3ccccc3)nc2CN1C(=O)NCCO` [compound 164, N-(2-hydroxyethyl)-5,5-dimethyl-2-(phenylamino)-5H-pyrrolo[3,4-d]pyrimidine-6(7H)-carboxamide], the 50% inhibitory concentration (IC50) amounted to 18.4 µM in experiment [1] (setting [4]) and 14 µM in experiment [2]. Regarding `CC1(C)c2cnc(Nc3ccccc3)nc2CN1C(=O)NC1CCOCC1` [compound 165, 5,5-dimethyl-2-(phenylamino)-N-(tetrahydro-2H-pyran-4-yl)-5H-pyrrolo[3,4-d]pyrimidine-6(7H)-carboxamide], the figures for the IC50 in experiment [1] (setting [5]) and in experiment [2] were 18.9 µM and 15.2 µM, respectively. For the molecule `CN(C)Cc1ccccc1CNC(=O)N1Cc2nc(Nc3ccccc3)ncc2C1(C)C` [compound 166, N-(2-((dimethylamino)methyl)benzyl)-5,5-dimethyl-2-(phenylamino)-5H-pyrrolo[3,4-d]pyrimidine-6(7H)-carboxamide], the IC50 in experiment [1] (setting [4]) was determined as 44.8 µM; in experiment [2], 16.3 µM. With `CN(C)C[C@H](NC(=O)N1Cc2nc(Nc3ccccc3)ncc2C1(C)C)c1ccccc1` [compound 168, (R)-N-(2-(dimethylamino)-1-phenylethyl)-5,5-dimethyl-2-(phenylamino)-5H-pyrrolo[3,4-d]pyrimidine-6(7H)-carboxamide], the half-inhibitory concentration (IC50) in experiment [1] (setting [5]) was 125 µM. Turning to `C[C@H](NC(=O)N1Cc2nc(Nc3ccccc3)ncc2C1(C)C)c1ccccc1` [compound 169, (S)-5,5-dimethyl-2-(phenylamino)-N-(1-phenylethyl)-5H-pyrrolo[3,4-d]pyrimidine-6(7H)-carboxamide], the IC50 in experiment [2] is greater than 25 µM. Consider `C[C@@H](NC(=O)N1Cc2nc(NC3CCOCC3)ncc2C1C1CC1)c1cccc(Cl)c1` (stereo partly drawn) [compound 171, N-((R)-1-(3-chlorophenyl)ethyl)-5-cyclopropyl-2-((tetrahydro-2H-pyran-4-yl)amino)-5H-pyrrolo[3,4-d]pyrimidine-6(7H)-carboxamide], for which the IC50 in experiment [1] (setting [4]) was 0.343 µM. Still for that read-out and setting: the same measure for `C[C@@H](NC(=O)N1Cc2nc(NC3CCOCC3)ncc2C1C1CC1)c1cccc(Cl)c1` (stereo partly drawn) [compound 172, N-((R)-1-(3-chlorophenyl)ethyl)-5-cyclopropyl-2-((tetrahydro-2H-pyran-4-yl)amino)-5H-pyrrolo[3,4-d]pyrimidine-6(7H)-carboxamide]: 0.146 µM.
